*1 amine or outer side, *2 acyl side, *3 side chain or, on linkers, in order; H or OH if unused. Where a SMILES comes first, the peptide text is derived from it. Bridges are numbered along the chain shown (N, C = ends). Roman numbers before positions name the chains, in order. Side-chain parts run from the residue outwards. [ ]: non-standard residue; d: D form. The star is where a group is joined. C18 diacid = O=C(O)CCCCCCCCCCCCCCCCC(=O)*; γGlu = O=C(O)[C@H](CCC(=O)[*:2])N[*:1]; Desaminohistidyl = O=C(CCc1c[nH]cn1)*; AEEA = NCCOCCOCC(=O)O; Aib = CC(C)(N)C(=O)O
Tests used:
[1] = biological target: T1, human GLP-1 receptor (Homo sapiens, UniProt P43220); test: Assay (II)(a): GLP-1 receptor binding, [125I]GLP-1 displacement, SPA on BHK membranes; conditions: displacement of [125I]GLP-1, membranes with human GLP-1 receptor; read-out: IC50 GLP-1R
T1 construct: expressed in transfected cells; host or cells: membranes of BHK cells, parent line BHKTS13, clone FCW467-12A
T1 sequence (P43220 24-463): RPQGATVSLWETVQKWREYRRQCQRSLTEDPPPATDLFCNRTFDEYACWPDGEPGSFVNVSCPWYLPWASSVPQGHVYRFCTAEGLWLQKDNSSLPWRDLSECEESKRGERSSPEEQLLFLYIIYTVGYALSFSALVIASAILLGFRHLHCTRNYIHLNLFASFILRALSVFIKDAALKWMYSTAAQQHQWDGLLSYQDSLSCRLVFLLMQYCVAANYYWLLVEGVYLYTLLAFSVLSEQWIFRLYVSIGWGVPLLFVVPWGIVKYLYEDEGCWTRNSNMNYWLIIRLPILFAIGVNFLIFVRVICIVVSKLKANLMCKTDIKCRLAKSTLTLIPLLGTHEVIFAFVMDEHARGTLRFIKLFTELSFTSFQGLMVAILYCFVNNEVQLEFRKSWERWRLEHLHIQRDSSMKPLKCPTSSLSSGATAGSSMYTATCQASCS
Method in brief: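 Membranes from BHK cells expressing human GLP-1 receptor with WGA SPA beads, [125I]GLP-1(7-36)NH2 (480 pM added solution) and compound in HEPES pH 7.4 buffer with EGTA, MgCl2, Tween 20. Incubated 2 h at 30° C; SPA counts fitted by non-linear regression to IC50 in nM.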

[2] = Assay (V): chemical stability assessment by RP-UPLC; format: physicochemical; conditions: 14 days at 37° C. in phosphate buffer (pH 7.3)
Procedure: Assay (V): Chemical Stability Assessment
The purpose of this assay is to assess the chemical stability of the GLP-1 derivatives of the present invention in aqueous solutions.
Chemical stability of GLP-1 derivatives may be investigated by RP-UPLC separation and UV detection. Lyophilized samples are dissolved in a 8 mM Phosphate buffer pH 8.6, followed by adjustment to pH 7.3 using HCl to a final concentration of 333 μM. Samples are incubated for 14 days at 5° C. and 37° C. followed by RP-UPLC analysis. Purity is defined as the area percentage of the main peak in relation to the total area of all integrated peaks in each chromatogram. Purity loss, also referred to herein as chemical degradation, after 14 days at 37° C. is determined as the difference in purity between the samples incubated at 5° C. and 37° C., divided by the purity of the sample after incubation for 14 days at 5° C.
RP-UPLC analysis is performed using a Waters BEH130 2.1 mm×150 mm, 1.7 μm column operated at 50° C. and a flow rate of 0.4 mL/min using a mobile phase system consisting of A: 0.05% TFA in MQ-water, and B: 0.05% TFA in Acetonitrile. UV-detection is performed at 215 nm. The typical gradient profile used for most of the samples is shown below.
For some individual derivatives eluting at substantially different retention times compared with the majority of derivatives, some adjustments to the gradient profile are made to better enable purity assessment comparison across samples.

| IC50 [1] | Chemical stability: Chemical degradation over 14 days at 37° C. [2] | Structure (SMILES) |
| --- | --- | --- |
| 0.5 nM | 0.4% | CC[C@H](C)[C@H](NC(=O)[C@H](Cc1ccccc1)NC(=O)[C@H](CCC(=O)O)NC(=O)[C@H](CCCNC(=N)N)NC(=O)[C@H](C)NC(=O)[C@H](C)NC(=O)[C@H](CCC(N)=O)NC(=O)[C@H](CCC(=O)O)NC(=O)[C@H](CCC(=O)O)NC(=O)[C@H](CC(C)C)NC(=O)[C@H](Cc1ccc(O)cc1)NC(=O)[C@H](CCCCN)NC(=O)[C@H](CO)NC(=O)[C@@H](NC(=O)[C@H](CC(=O)O)NC(=O)[C@H](CO)NC(=O)[C@@H](NC(=O)[C@H](Cc1ccccc1)NC(=O)[C@@H](NC(=O)CNC(=O)[C@H](Cc1c[nH]cn1)NC(=O)C(C)(C)NC(=O)CCc1c[nH]cn1)[C@@H](C)O)[C@@H](C)O)C(C)C)C(=O)N[C@@H](C)C(=O)N[C@@H](Cc1c[nH]c2ccccc12)C(=O)N[C@@H](CC(C)C)C(=O)N[C@@H](CC(C)C)C(=O)N[C@@H](CCCCNC(=O)COCCOCCNC(=O)COCCOCCNC(=O)CC[C@H](NC(=O)CC[C@H](NC(=O)CCCCCCCCCCCCCCCCC(=O)O)C(=O)O)C(=O)O)C(=O)N[C@H](C(N)=O)[C@@H](C)O [Example 5, N^ε34-[2-[2-[2-[[2-[2-[2-[[(4S)-4-carboxy-4-[[(4S)-4-carboxy-4-(17-carboxyheptadecanoylamino)butanoyl]amino]butanoyl]amino]ethoxy]ethoxy]acetyl]amino]ethoxy]ethoxy]acetyl]-[Imp7,Aib8,His9,Lys18,Glu22,Arg26,Leu33,Thr35]-GLP-1-(7-35)-peptide amide] (Desaminohistidyl-[Aib]HGTFTSDVSKYLEEQAAREFIAWLLK([AEEA-AEEA-γGlu-γGlu-C18 diacid])T-NH2) |
| 0.3 nM | 0.1% | CC[C@H](C)[C@H](NC(=O)[C@H](Cc1ccccc1)NC(=O)[C@H](CCC(=O)O)NC(=O)[C@H](CCCNC(=N)N)NC(=O)[C@H](C)NC(=O)[C@H](C)NC(=O)[C@H](CCC(N)=O)NC(=O)[C@H](CCC(=O)O)NC(=O)[C@H](CCC(=O)O)NC(=O)[C@H](CC(C)C)NC(=O)[C@H](Cc1ccc(O)cc1)NC(=O)[C@H](CCCCN)NC(=O)[C@H](CO)NC(=O)[C@@H](NC(=O)[C@H](CC(=O)O)NC(=O)[C@H](CO)NC(=O)[C@@H](NC(=O)[C@H](Cc1ccccc1)NC(=O)[C@@H](NC(=O)CNC(=O)[C@H](Cc1c[nH]cn1)NC(=O)C(C)(C)NC(=O)CCc1c[nH]cn1)[C@@H](C)O)[C@@H](C)O)C(C)C)C(=O)N[C@@H](C)C(=O)N[C@@H](Cc1c[nH]c2ccccc12)C(=O)N[C@@H](CC(C)C)C(=O)N[C@@H](CC(C)C)C(=O)N[C@@H](CCCCNC(=O)CC[C@H](NC(=O)CC[C@H](NC(=O)CC[C@H](NC(=O)CC[C@H](NC(=O)CCCCCCCCCCCCCCCCC(=O)O)C(=O)O)C(=O)O)C(=O)O)C(=O)O)C(=O)N[C@H](C(N)=O)[C@@H](C)O [Example 6, N^ε34-[(4S)-4-carboxy-4-[[(4S)-4-carboxy-4-[[(4S)-4-carboxy-4-[[(4S)-4-carboxy-4-(17-carboxyheptadecanoylamino)butanoyl]amino]butanoyl]amino]butanoyl]amino]butanoyl]-[Imp7,Aib8,His9,Lys18,Glu22,Arg26,Leu33,Thr35]-GLP-1-(7-35)-peptide amide] (Desaminohistidyl-[Aib]HGTFTSDVSKYLEEQAAREFIAWLLK([γGlu-γGlu-γGlu-γGlu-C18 diacid])T-NH2) |
| 1 nM | – | CC[C@H](C)[C@H](NC(=O)[C@H](Cc1ccccc1)NC(=O)[C@H](CCC(=O)O)NC(=O)[C@H](CCCNC(=N)N)NC(=O)[C@H](C)NC(=O)[C@H](C)NC(=O)[C@H](CCCNC(=N)N)NC(=O)CNC(=O)[C@H](CCC(=O)O)NC(=O)[C@H](CC(C)C)NC(=O)[C@H](Cc1ccc(O)cc1)NC(=O)[C@H](CCCNC(=N)N)NC(=O)[C@H](CO)NC(=O)[C@@H](NC(=O)[C@H](CC(=O)O)NC(=O)[C@H](CO)NC(=O)[C@@H](NC(=O)[C@H](Cc1ccccc1)NC(=O)[C@@H](NC(=O)CNC(=O)[C@H](Cc1c[nH]cn1)NC(=O)C(C)(C)NC(=O)CCc1c[nH]cn1)[C@@H](C)O)[C@@H](C)O)C(C)C)C(=O)N[C@@H](C)C(=O)N[C@@H](Cc1c[nH]c2ccccc12)C(=O)N[C@@H](CC(C)C)C(=O)N[C@@H](CC(C)C)C(=O)N[C@@H](CCCCNC(=O)CC[C@H](NC(=O)CC[C@H](NC(=O)COCCOCCNC(=O)CC[C@H](NC(=O)CC[C@H](NC(=O)CCCCCCCCCCCCCCCCC(=O)O)C(=O)O)C(=O)O)C(=O)O)C(=O)O)C(=O)NCC(=O)N[C@@H](C)C(=O)NCC(=O)O [Example 35, N^ε34-[(4S)-4-carboxy-4-[[(4S)-4-carboxy-4-[[2-[2-[2-[[(4S)-4-carboxy-4-[[(4S)-4-carboxy-4-(17-carboxyheptadecanoylamino)butanoyl]amino]butanoyl]amino]ethoxy]ethoxy]acetyl]amino]butanoyl]amino]butanoyl]-[Imp7,Aib8,His9,Arg18,Arg23,Arg26,Leu33,Ala36]-GLP-1-(7-37)-peptide] (Desaminohistidyl-[Aib]HGTFTSDVSRYLEGRAAREFIAWLLK([γGlu-γGlu-AEEA-γGlu-γGlu-C18 diacid])GAG-OH) |

The next lines start with the molecule.

| Structure (SMILES) | IC50 [1] | Chemical stability: Chemical degradation over 14 days at 37° C. [2] |
| --- | --- | --- |
| CC[C@H](C)[C@H](NC(=O)[C@H](Cc1ccccc1)NC(=O)[C@H](CCC(=O)O)NC(=O)[C@H](CCCNC(=N)N)NC(=O)[C@H](C)NC(=O)[C@H](C)NC(=O)[C@H](CCC(N)=O)NC(=O)[C@H](CCC(=O)O)NC(=O)[C@H](CCC(=O)O)NC(=O)[C@H](CC(C)C)NC(=O)[C@H](Cc1ccc(O)cc1)NC(=O)[C@H](CCCCN)NC(=O)[C@H](CO)NC(=O)[C@@H](NC(=O)[C@H](CC(=O)O)NC(=O)[C@H](CO)NC(=O)[C@@H](NC(=O)[C@H](Cc1ccccc1)NC(=O)[C@@H](NC(=O)CNC(=O)[C@H](Cc1c[nH]cn1)NC(=O)C(C)(C)NC(=O)CCc1c[nH]cn1)[C@@H](C)O)[C@@H](C)O)C(C)C)C(=O)N[C@@H](C)C(=O)N[C@@H](Cc1c[nH]c2ccccc12)C(=O)N[C@@H](CC(C)C)C(=O)N[C@@H](CC(C)C)C(=O)N[C@@H](CCCCNC(=O)CNC(=O)[C@H](CO)NC(=O)[C@H](CCC(=O)O)NC(=O)CNC(=O)[C@H](CO)NC(=O)CC[C@H](NC(=O)CC[C@H](NC(=O)CCCCCCCCCCCCCCCCC(=O)O)C(=O)O)C(=O)O)C(=O)N[C@H](C(N)=O)[C@@H](C)O [Example 3, N^ε34-[2-[[(2S)-2-[[(2S)-4-carboxy-2-[[2-[[(2S)-2-[[(4S)-4-carboxy-4-[[(4S)-4-carboxy-4-(17-carboxyheptadecanoylamino)butanoyl]amino]butanoyl]amino]-3-hydroxypropanoyl]amino]acetyl]amino]butanoyl]amino]-3-hydroxypropanoyl]amino]acetyl]-[Imp7,Aib8,His9,Lys18,Glu22,Arg26,Leu33,Thr35]-GLP-1-(7-35)-peptide amide] (I: Desaminohistidyl-[Aib]HGTFTSDVSKYLEEQAAREFIAWLLKT-NH2 / II: {C18 diacid-γGlu-γGlu}-SGESG; amide I:27-II:C) | 0.4 nM | −0.3% |
| CC[C@H](C)[C@H](NC(=O)[C@H](Cc1ccccc1)NC(=O)[C@H](CCC(=O)O)NC(=O)[C@H](CCCNC(=N)N)NC(=O)[C@H](C)NC(=O)[C@H](C)NC(=O)[C@H](CCC(N)=O)NC(=O)[C@H](CCC(=O)O)NC(=O)[C@H](CCC(=O)O)NC(=O)[C@H](CC(C)C)NC(=O)[C@H](Cc1ccc(O)cc1)NC(=O)[C@H](CCCCN)NC(=O)[C@H](CO)NC(=O)[C@@H](NC(=O)[C@H](CC(=O)O)NC(=O)[C@H](CO)NC(=O)[C@@H](NC(=O)[C@H](Cc1ccccc1)NC(=O)[C@@H](NC(=O)CNC(=O)[C@H](Cc1c[nH]cn1)NC(=O)C(C)(C)NC(=O)CCc1c[nH]cn1)[C@@H](C)O)[C@@H](C)O)C(C)C)C(=O)N[C@@H](C)C(=O)N[C@@H](Cc1c[nH]c2ccccc12)C(=O)N[C@@H](CC(C)C)C(=O)N[C@@H](CC(C)C)C(=O)N[C@@H](CCCCNC(=O)CNC(=O)[C@H](CO)NC(=O)CC[C@H](NC(=O)CC[C@H](NC(=O)CCCCCCCCCCCCCCCCC(=O)O)C(=O)O)C(=O)O)C(=O)N[C@H](C(N)=O)[C@@H](C)O [Example 4, N^ε34-[2-[[(2S)-2-[[(4S)-4-carboxy-4-[[(4S)-4-carboxy-4-(17-carboxyheptadecanoylamino)butanoyl]amino]butanoyl]amino]-3-hydroxypropanoyl]amino]acetyl]-[Imp7,Aib8,His9,Lys18,Glu22,Arg26,Leu33,Thr35]-GLP-1-(7-35)-peptide amide] (Desaminohistidyl-[Aib]HGTFTSDVSKYLEEQAAREFIAWLLK([Gly-Ser-γGlu-γGlu-C18 diacid])T-NH2) | 0.2 nM | 0.2% |

— US9988430B2, “Stable GLP-1 based GLP-1/glucagon receptor co-agonists” (Novo Nordisk A/S, priority 2014, dated 2018)
